Results from patent US4937246A, “PAF antagonist, 1,4-disubstituted piperazine compounds and production thereof” (priority 1987, dated 1990).
Like-named read-outs stand apart in the source and are kept apart here.

Legend:
[1] = system: PAF-induced platelet aggregation; experiment: Inhibitory action on PAF-induced platelet aggregation (turbidimetry, platelet rich plasma); assay type: cell-based, rabbit (New Zealand white); conditions: Oryctolagus cuniculus, Concentration of test compound: 3 × 10^-5 M
Experimental: Blood was collected from the hearts of conscious New Zealand white male rabbits weighing 2 to 3 Kg using citric acid as an anticoagulant (one volume part of 3.15% citric acid relative to 9 volume parts of the whole blood). The blood was subjected to a centrifuge at 800 rpm for 10 minutes to obtain platelet rich plasma (PRP). The remaining blood after collecting the PRP was subjected to a centrifuge at 3000 rpm for 10 minutes to obtain platelet poor plasma (PPP). PRP was diluted with PPP to adjust the number of platelets to about 500,000/μl. Platelet aggregation was examined by means of turbidimetry [Born, Nature, 194, 927-929 (1962)] with 8 channel aggregometer (NBS HEMA TRACER 6 Nikoh, Bio-science, Japan). More concretely, PRP (250μl) was kept warm (37° C.) for 3 minutes in a silicon-processed cuvette, to which was added a test sample (25μl) dissolved in a physiological saline or in 10mM dimethlsulfoxide followed by dilution with a physiological saline. Two minutes later, PAF (25μl, 3×10^-9 -1×10^-8 M), dissolved in a physiological saline, was added and then the maximum aggregation rate was determined. As the control, physiological saline without test sample was added to the cuvette, and the inhibitory rate thereon was determined.
Incidentally, Compound B means N,N'-bis(3,4,5-trimethoxybenzoyl)piperazine (a known compound).

PAF-induced hypotension = experiment: Inhibitory action on PAF-induced hypotension (oral administration); assay type: in vivo, rat (SD (Jcl)); conditions: Rattus norvegicus; for inhibition in vivo at 30 mg/kg: 30 mg/kg oral; for inhibition in vivo at 3 mg/kg: 3 mg/kg oral; for inhibition in vivo at 10 mg/kg: 10 mg/kg oral
Experimental: SD (Jcl) male rats of 6 to 8 week old were applied with cannulation into the femoral artery and vein under anesthesia with pentobarbital. The animals were fasted overnight, then subjected to the experiment. A tansducer (MPU-0.5-290-0-III, TOYO BALDWIN, Japan) was connected with the artery cannula, and blood pressure was continuously measured by means of polygraph (San-ei, Japan). When the blood pressure became constant, PAF (0.5 to 1.0 μg/kg, 250 μl/kg) dissolved in a physiological saline was injected through the venous cannula to lower the blood pressures by 30 to 45 mmHg. Thirty minutes later, PAF was injected again, and the average of lowered values of blood pressure (twice) was used as the control. After restoration of blood pressure to the initial level, test samples prepared by dissolving or suspending the drug in a physiological saline suspension of gum arabic (5%) were orally administered (5 ml/kg), then, after 1, 2 and 4 hours, PAF was injected. The rate of inhibition of lowering of blood pressure after administration of the test samples against the control was evaluated.

SMILES | inhibition at 30 µM [1] | inhibition in vivo at 30 mg/kg (PAF-induced hypotension; after 1 hr.) | inhibition in vivo at 30 mg/kg (PAF-induced hypotension; after 2 hrs.) | inhibition in vivo at 30 mg/kg (PAF-induced hypotension; after 4 hrs.) | also measured
COc1cc(C(=O)N2CCN(C(=O)c3cc(OC)c(OC)c(OC)c3)CC2)cc(OC)c1OC [Compound B, N,N'-bis(3,4,5-trimethoxybenzoyl)piperazine, reference compound] | 100% | 86% | 63% | 26% | LD50 (estimated) (rats; oral, rats, single dose): ~1000 mg/kg; survival (rats; rat, in vivo, po, 1000 mg/kg): all of the animals survived
COc1cc(CN2CCN(C(=O)c3ccsc3)CC2)cc(OC)c1OC [compound 13] | 46% |  |  |  | 
COc1cc2c(cc1OC)SCCC(C(=O)N1CCN(C(=O)c3cc(OC)c(OC)c(OC)c3)CC1)=C2 [compound 24] | 100% | 94% | 91% | 78% | 
COc1cc(CN2CCN(C(=O)c3cc(OC)c(OC)c(OC)c3)CC2)cc(OC)c1OC [compound 2] | 100% |  |  |  | 
COc1cc2c(cc1OC)OCCC(C(=O)N1CCN(Cc3cc(OC)c(OC)c(OC)c3)CC1)=C2 [compound 25] | 100% | 100% | 97% | 70% | 
COc1cc2c(cc1OC)OCCC(C(=O)N1CCN(C(=S)c3cc(OC)c(OC)c(OC)c3)CC1)=C2 [compound 29] |  | 100% | 100% | 100% | inhibition in vivo at 3 mg/kg (PAF-induced hypotension; after 1 hr.): 67%; inhibition in vivo at 3 mg/kg (PAF-induced hypotension; after 2 hrs.): 71%; inhibition in vivo at 3 mg/kg (PAF-induced hypotension; after 4 hrs.): 61%
COc1cc(CN2CCN(C(=O)c3cccnc3)CC2)cc(OC)c1OC [compound 8] | 63% |  |  |  | 
COc1cc(CN2CCN(C(=O)c3ccc4c(c3)C(=O)C3(CC3)O4)CC2)cc(OC)c1OC [compound 21] | 100% |  |  |  | 
COc1cc(CN2CCN(C(=O)c3nc4ccccc4s3)CC2)cc(OC)c1OC [compound 9] | 52% |  |  |  | 
CCCOc1c(OC)cc(C(=O)N2CCN(Cc3cc(OC)c(OC)c(OC)c3)CC2)cc1[N+](=O)[O-] [compound 3] | 100% | 86% | 63% | 26% | 
COc1cc(CN2CCN(C(=O)c3ccc4c(c3)C(O)C3(CC3)O4)CC2)cc(OC)c1OC (centres unmarked) [compound 22] | 100% | 94% | 80% | 2% | 
COc1cc2c(cc1OC)OCCC(C(=O)N1CCN(C(=O)c3cc(OC)c(OC)c(OC)c3)CC1)=C2 [compound 26] | 100% | 98% | 99% | 100% | inhibition in vivo at 3 mg/kg (PAF-induced hypotension; after 1 hr.): 74%; inhibition in vivo at 3 mg/kg (PAF-induced hypotension; after 2 hrs.): 70%; inhibition in vivo at 3 mg/kg (PAF-induced hypotension; after 4 hrs.): 44%; inhibition in vivo at 10 mg/kg (PAF-induced hypotension; after 1 hr.): 100%; inhibition in vivo at 10 mg/kg (PAF-induced hypotension; after 2 hrs.): 100%; inhibition in vivo at 10 mg/kg (PAF-induced hypotension; after 4 hrs.): 87%
COc1cc(CN2CCN(C(=O)c3cc4ccccc4o3)CC2)cc(OC)c1OC.Cl [Working Example 7, 1-(2-benzofuranylcarbonyl)4-(3,4,5-trimethoxybenzyl)piperazine hydrochloride] |  |  |  |  | survival (rats; single oral dose 1000 mg/kg, rats, one week observation): all of the animals survived
COc1cc(CN2CCN(C(=O)c3cc4ccccc4o3)CC2)cc(OC)c1OC [compound 7] | 74% | 4% | 15% | 25% | 
COc1ccc2c(c1)C=C(C(=O)N1CCN(C(=O)c3cc(OC)c(OC)c(OC)c3)CC1)CCO2 [compound 27] |  | 100% | 100% | 86% | inhibition in vivo at 10 mg/kg (PAF-induced hypotension; after 1 hr.): 79%; inhibition in vivo at 10 mg/kg (PAF-induced hypotension; after 2 hrs.): 75%; inhibition in vivo at 10 mg/kg (PAF-induced hypotension; after 4 hrs.): 62%
COc1ccc2c(c1)OCCC(C(=O)N1CCN(C(=O)c3cc(OC)c(OC)c(OC)c3)CC1)=C2 [compound 28] |  | 92% | 91% | 92% | 
COc1cc(CN2CCN(C(=O)c3ccc4c(c3)OCCO4)CC2)cc(OC)c1OC [compound 17] | 88% |  |  |  | 
CCCCOc1c(OC)cc(C(=O)N2CCN(C(=O)c3cc(OC)c(OC)c(OC)c3)CC2)cc1[N+](=O)[O-] [compound 5] |  | 91% | 93% | 88% | 
COc1ccc2c3c(oc2c1)CCC(C(=O)N1CCN(Cc2cc(OC)c(OC)c(OC)c2)CC1)=C3 [compound 18] | 84% |  |  |  | 
COc1cc(CN2CCN(C(=O)c3cnc4ccccc4c3)CC2)cc(OC)c1OC [compound 16] | 58% |  |  |  | 
COc1ccc(C(=O)N2CCN(Cc3cc(OC)c(OC)c(OC)c3)CC2)cc1OC [compound 4] |  | 64% | 32% | 22% | 
COc1cc(CN2CCN(C(=O)C3=Cc4cc5c(cc4CC3)OCO5)CC2)cc(OC)c1OC [compound 6] | 93% |  |  |  | 
COc1cc2c(cc1OC)OCCC(C(=O)N1CCN(C(=O)c3cc(OC)c(OC)c(OC)c3)CC1)C2 (centres unmarked) [compound 33] | 47% | 99% | 99% | 79% | 
COc1cc2c(cc1OC)SCCC(C(=O)N1CCN(Cc3cc(OC)c(OC)c(OC)c3)CC1)=C2 [compound 23] | 74% | 94% | 94% | 67% | 
COc1cc(CN2CCN(C(=O)C3CCc4sc5ccccc5c4C3O)CC2)cc(OC)c1OC (centres unmarked) [compound 19] | 64% |  |  |  | 
COc1cc(CN2CCN(C(=O)c3cc4ccccc4oc3=O)CC2)cc(OC)c1OC [compound 12] | 78% | 65% | 40% | 24% | 
